Assay [1] addresses Phosphatidylinositol 4,5-bisphosphate 3-kinase catalytic subunit alpha isoform (Homo sapiens, UniProt P42336). Put plainly: Inhibition of PI3Kalpha (unknown origin) using PIP2 as substrate incubated for 1 hr in presence of ATP by Kinase Glo luminescence assay. (Kinase-Glo measures the ATP left after a reaction by luminescence.)
Assay [2] addresses T1, Phosphatidylinositol 4,5-bisphosphate 3-kinase catalytic subunit delta isoform (Homo sapiens, UniProt O00329).
T1 sequence (O00329 whole entry): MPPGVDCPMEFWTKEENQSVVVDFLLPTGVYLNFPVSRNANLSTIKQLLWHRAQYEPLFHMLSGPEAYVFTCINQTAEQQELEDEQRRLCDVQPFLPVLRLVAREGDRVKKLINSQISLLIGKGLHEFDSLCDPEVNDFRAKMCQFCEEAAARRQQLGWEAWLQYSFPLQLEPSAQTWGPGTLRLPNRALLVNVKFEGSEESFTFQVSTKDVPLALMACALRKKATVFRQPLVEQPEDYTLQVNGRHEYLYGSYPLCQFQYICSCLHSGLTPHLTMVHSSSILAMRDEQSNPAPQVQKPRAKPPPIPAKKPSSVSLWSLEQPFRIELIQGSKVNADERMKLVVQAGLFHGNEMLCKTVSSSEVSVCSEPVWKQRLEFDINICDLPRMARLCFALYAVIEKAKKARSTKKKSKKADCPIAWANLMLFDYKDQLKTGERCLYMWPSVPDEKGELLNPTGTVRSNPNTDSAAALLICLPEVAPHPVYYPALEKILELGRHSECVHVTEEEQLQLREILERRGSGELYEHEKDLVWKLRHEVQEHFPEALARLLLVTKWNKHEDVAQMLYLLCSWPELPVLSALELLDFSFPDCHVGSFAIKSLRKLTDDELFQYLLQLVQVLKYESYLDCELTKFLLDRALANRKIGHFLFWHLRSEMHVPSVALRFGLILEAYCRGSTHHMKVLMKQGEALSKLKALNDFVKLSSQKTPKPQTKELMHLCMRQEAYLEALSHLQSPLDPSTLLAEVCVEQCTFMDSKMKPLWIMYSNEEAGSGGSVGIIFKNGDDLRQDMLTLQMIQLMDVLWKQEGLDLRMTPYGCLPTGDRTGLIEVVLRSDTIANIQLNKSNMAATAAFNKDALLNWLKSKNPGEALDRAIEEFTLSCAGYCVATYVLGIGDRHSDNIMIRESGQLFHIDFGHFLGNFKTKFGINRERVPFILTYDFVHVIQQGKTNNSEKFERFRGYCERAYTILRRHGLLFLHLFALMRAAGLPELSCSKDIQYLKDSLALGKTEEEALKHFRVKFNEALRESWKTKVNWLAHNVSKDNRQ
Kind of assay: Inhibition of PI3Kdelta (unknown origin) using PIP2 as substrate incubated for 2 hrs in presence of ATP by Kinase Glo luminescence assay.

For assay [3], the target named is Serine/threonine-protein kinase mTOR (Homo sapiens, UniProt P42345). Put plainly: Inhibition of N-terminal FLAG-tagged recombinant human mTOR (1362 to end residue) using ULight-4EBP1 peptide as substrate incubated for 30 mins in presence of ATP by Lance ultra assay.
The subject of assay [4] is NCI-H3122. Put plainly: Antiproliferative activity against human NCI-H3122 cells assessed as inhibition of cell growth incubated for 48 to 72 hrs by MTT assay. The class given is functional, cell-based.
For assay [5], the system named is HCT-15. Kind of assay: Antiproliferative activity against human HCT-15 cells with PIK3CA mutation assessed as inhibition of cell growth incubated for 48 to 72 hrs by MTT assay. It is filed as functional, cell-based. A general note: Formazan colour is commonly taken as a measure of viable cells.
The test system of assay [6] is SW-620. Kind of assay: Antiproliferative activity against human SW620 cells assessed as inhibition of cell growth incubated for 48 to 72 hrs by MTT assay. It is filed as functional, cell-based.
For assay [7], the system named is NCI-H446. Put plainly: Antiproliferative activity against PTEN-null human NCI-H446 cells assessed as inhibition of cell growth incubated for 48 to 72 hrs by MTT assay. The class given is functional, cell-based.
The test system of assay [8] is HT-29. Kind of assay: Antiproliferative activity against human HT-29 cells with PIK3CA mutation assessed as inhibition of cell growth incubated for 48 to 72 hrs by MTT assay. It is filed as functional, cell-based.
In assay [9] the test system is HeLa. Put plainly: Antiproliferative activity against human HeLa cells assessed as inhibition of cell growth incubated for 48 to 72 hrs by MTT assay. It is filed as functional, cell-based.

Chain of Phosphatidylinositol 4,5-bisphosphate 3-kinase catalytic subunit alpha isoform (P42336 whole entry, canonical isoform): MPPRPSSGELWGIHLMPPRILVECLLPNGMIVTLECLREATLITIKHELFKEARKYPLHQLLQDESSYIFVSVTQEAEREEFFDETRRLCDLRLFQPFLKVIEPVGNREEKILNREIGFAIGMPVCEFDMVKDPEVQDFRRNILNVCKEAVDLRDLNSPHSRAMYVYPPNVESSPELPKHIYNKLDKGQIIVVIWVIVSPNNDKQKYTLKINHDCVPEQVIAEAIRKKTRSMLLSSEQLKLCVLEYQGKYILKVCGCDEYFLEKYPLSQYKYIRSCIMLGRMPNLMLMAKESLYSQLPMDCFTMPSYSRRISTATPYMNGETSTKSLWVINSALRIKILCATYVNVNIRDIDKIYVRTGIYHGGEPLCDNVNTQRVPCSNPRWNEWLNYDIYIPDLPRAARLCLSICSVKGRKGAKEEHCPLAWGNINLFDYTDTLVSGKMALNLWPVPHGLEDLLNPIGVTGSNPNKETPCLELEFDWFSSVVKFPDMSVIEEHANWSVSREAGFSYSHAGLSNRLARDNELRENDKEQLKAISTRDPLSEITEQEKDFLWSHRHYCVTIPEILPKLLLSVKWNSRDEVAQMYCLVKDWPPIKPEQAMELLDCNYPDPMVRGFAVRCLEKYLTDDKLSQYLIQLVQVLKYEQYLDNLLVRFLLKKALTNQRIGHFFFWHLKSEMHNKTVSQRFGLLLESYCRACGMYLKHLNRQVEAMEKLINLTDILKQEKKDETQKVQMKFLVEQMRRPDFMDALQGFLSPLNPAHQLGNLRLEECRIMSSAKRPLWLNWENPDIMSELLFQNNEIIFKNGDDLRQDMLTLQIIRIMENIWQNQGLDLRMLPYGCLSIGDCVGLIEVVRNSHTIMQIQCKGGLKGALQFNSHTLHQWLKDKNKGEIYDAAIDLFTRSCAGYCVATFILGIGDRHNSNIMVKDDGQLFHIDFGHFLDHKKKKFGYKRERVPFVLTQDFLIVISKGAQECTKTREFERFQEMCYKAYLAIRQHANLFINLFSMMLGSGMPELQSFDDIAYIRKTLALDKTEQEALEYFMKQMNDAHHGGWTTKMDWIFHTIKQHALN

The IC50 is the concentration that inhibits the measured activity by half. Turning to `Cc1nc2cnc3ccc(-c4cnc5[nH]ccc5c4)cc3c2n1C1CC1`, the IC50 in [1] is 501 nM; in [2], 814 nM; in [3] it was more than 1000 nM.
Regarding `CNC(=O)c1ccc(-c2ccc3ncc4nc(C)n(-c5ccc(F)cc5)c4c3c2)cc1`, the concentration for half-maximal inhibition (IC50) in assay [4] is more than 20000 nM; in assay [5] it was 12700 nM; in assay [1], 195 nM; in assay [6], more than 20000 nM; in [2], 133 nM; in [7], more than 20000 nM. The IC50 in assay [8] is 9890 nM; in assay [3], 157 nM; in assay [9], more than 20000 nM.
For `Cc1nc2cnc3ccc(-c4cnc5[nH]ccc5c4)cc3c2n1-c1ccc(C(F)(F)F)cc1`, the IC50 in assay [4] is 1030 nM; in assay [5], 970 nM; in assay [1], 47.1 nM; in assay [6], 1160 nM; in assay [2] it was 66.3 nM; in [7], 1390 nM. The IC50 was 1250 nM in assay [8], 109 nM in assay [3] and 1080 nM in [9].
Take `Cc1nc2cnc3ccc(-c4ccc(Cl)cc4)cc3c2n1-c1ccc(F)cc1`: the IC50 was 569 nM in assay [1], more than 1000 nM in assay [2] and more than 1000 nM in assay [3].
`Cc1nc2cnc3ccc(-c4cnc5[nH]ccc5c4)cc3c2n1[C@H](C)c1ccc(F)cc1`: the concentration for half-maximal inhibition (IC50) in [4] was determined as 2050 nM; in [5], 1170 nM; in [1] it was 151 nM; in [6], 1740 nM; in assay [2], 184 nM; in [7] it was 3970 nM. Further, the IC50 is 1380 nM in [8], 90.2 nM in assay [3] and 3940 nM in assay [9].
Regarding `Cc1nc2cnc3ccc(-c4cnc(N)nc4)cc3c2n1-c1ccc(F)cc1`, the 50% inhibitory concentration (IC50) was 5390 nM in assay [4]; 1970 nM in [5]; 36.7 nM in assay [1]; 1930 nM in assay [6]; 30.4 nM in assay [2]; 4160 nM in assay [7]. Further, the IC50 was 1320 nM in [8], 62.1 nM in [3] and 2710 nM in [9].
As to `Cc1nc2cnc3ccc(-c4ccc(O)cc4)cc3c2n1-c1ccc(F)cc1`, the IC50 was 3730 nM in [4]; 2750 nM in assay [5]; 89.2 nM in [1]; 3620 nM in [6]; 132 nM in [2]; 7820 nM in [7]. For the same compound, the figures for the concentration for half-maximal inhibition (IC50) in [8], in [3] and in assay [9] were 3360 nM, 244 nM and 2160 nM, respectively.
With `Cc1nc2cnc3ccc(-c4cnc5[nH]ccc5c4)cc3c2n1-c1ccc(F)nc1`, the IC50 is 1310 nM in [4]; 1290 nM in assay [5]; 41.4 nM in assay [1]; 970 nM in assay [6]; 55.2 nM in [2]; 2100 nM in assay [7]. Moreover, the IC50 in assay [8] worked out at 1160 nM; in assay [3] it was 76.4 nM; in assay [9], 1920 nM.
For the compound `Cc1nc2cnc3ccc(-c4cnc5[nH]ccc5c4)cc3c2n1Cc1ccccc1`, the IC50 in assay [4] worked out at 6710 nM; in assay [5], 3060 nM; in assay [1], 117 nM; in assay [6], 4160 nM; in [2] it was 106 nM; in assay [7], 7590 nM. The values for the IC50 in assay [8], in [3] and in assay [9] were 2980 nM, 263 nM and 2720 nM, respectively.
With `Cc1nc2cnc3ccc(-c4cnc5[nH]ccc5c4)cc3c2n1[C@H](C)c1ccccc1`, the 50% inhibitory concentration (IC50) in assay [4] was 1960 nM; in assay [5] it was 1430 nM; in assay [1], 79.6 nM; in assay [6], 1650 nM; in assay [2] it was 164 nM; in [7], 2780 nM. In addition, the IC50 turned out to be 1870 nM in assay [8], 102 nM in assay [3] and 2350 nM in [9].
With `Cc1nc2cnc3ccc(-c4cnc(N5CCOCC5)nc4)cc3c2n1-c1ccc(F)cc1`, the IC50 in assay [1] was 463 nM; in [2], more than 1000 nM; in [3] it was 596 nM.
For `CC(=O)c1ccc(-c2ccc3ncc4nc(C)n(-c5ccc(F)cc5)c4c3c2)cc1`, in that order: 304 nM, more than 1000 nM and 487 nM.
For `Cc1ccc(-c2ccc3ncc4nc(C)n(-c5ccc(F)cc5)c4c3c2)cc1`, in that order: 357 nM, 579 nM and more than 1000 nM.
As for `Cc1nc2cnc3ccc(-c4cnc5[nH]ccc5c4)cc3c2n1-c1ccc(CC#N)cc1`, the IC50 in [4] was found to be 5360 nM; in [5], 1790 nM; in assay [1], 139 nM; in assay [6] it was 3210 nM; in assay [2], 105 nM; in assay [7], 4820 nM. In addition, the IC50 in assay [8] is 1150 nM; in [3], 84.9 nM; in assay [9] it was 2760 nM.
As for `COc1ccc(-n2c(C)nc3cnc4ccc(-c5cnc6[nH]ccc6c5)cc4c32)cc1`, the IC50 in assay [4] stood at 1330 nM; in assay [5] it was 750 nM; in [1], 26.3 nM; in assay [6] it was 1870 nM; in assay [2], 17.2 nM; in assay [7], 1510 nM. Further, the results for the IC50 in [8], in assay [3] and in assay [9] were 820 nM, 67.2 nM and 960 nM, respectively.
With `Cc1nc2cnc3ccc(-c4ccc(F)cc4)cc3c2n1-c1ccc(F)cc1`, the figures for the IC50 in assay [1], in [2] and in assay [3] were 487 nM, more than 1000 nM and 781 nM, respectively.
As to `Cc1nc2cnc3ccc(-c4cnc5[nH]ccc5c4)cc3c2n1[C@@H](C)c1ccccc1`, the IC50 is 2150 nM in assay [4]; 1520 nM in assay [5]; 54.1 nM in assay [1]; 1050 nM in assay [6]; 104 nM in [2]; 3410 nM in assay [7]. Also, the IC50 in [8] was 1610 nM; in [3], 78.1 nM; in assay [9], 1620 nM.
Take `COc1ccc(-c2ccc3ncc4nc(C)n(-c5ccc(F)cc5)c4c3c2)cc1`: the IC50 in assay [1] was 321 nM; in assay [2], more than 1000 nM; in [3], more than 1000 nM.
For the compound `Cc1nc2cnc3ccc(-c4cc(C(F)(F)F)cc(C(F)(F)F)c4)cc3c2n1-c1ccc(F)cc1`, the IC50 in assay [1], in [2] and in [3] was more than 1000 nM in each case.
`Cc1nc2cnc3ccc(-c4cnc5[nH]ccc5c4)cc3c2n1CC1CCOCC1`: the values for the IC50 in assay [1], in assay [2] and in assay [3] were 307 nM, 218 nM and 415 nM, respectively.
The matching figures for `Cc1nc2cnc3ccc(-c4ccc(C#N)cc4)cc3c2n1-c1ccc(F)cc1`: 352 nM, 513 nM and more than 1000 nM.
The matching figures for `Cc1nc2cnc3ccc(-c4cnc5[nH]ccc5c4)cc3c2n1C`: 472 nM, more than 1000 nM and 679 nM.
The matching figures for `Cc1noc(C)c1-c1ccc2ncc3nc(C)n(-c4ccc(F)cc4)c3c2c1`: more than 1000 nM, 852 nM and more than 1000 nM.
`Cc1nc2cnc3ccc(-c4cnc5[nH]ccc5c4)cc3c2n1CC1CCOC1` (stereo not given): the IC50 in [1] was 365 nM; in assay [2] it was 450 nM; in assay [3] it was 392 nM.
For `Cc1nc2cnc3ccc(-c4ccc(C(F)(F)F)cc4)cc3c2n1-c1ccc(F)cc1`, in that order: 507 nM, more than 1000 nM and more than 1000 nM.
On to `Oc1cccc(-c2nc(N3CCOCC3)c3oc4ncccc4c3n2)c1` [PI-103], for which the IC50 in [4] was determined as 2510 nM; in [5] it was 1760 nM; in [6], 1070 nM; in assay [7] it was 2160 nM; in assay [8], 1310 nM; in [9], 3720 nM.
Regarding `Cc1nc2cnc3ccc(-c4cnn(C)c4)cc3c2n1-c1ccc(F)cc1`, the IC50 in assay [1] was 672 nM; in assay [2], more than 1000 nM; in [3], more than 1000 nM.

For the origin of these results see ChEMBL document CHEMBL5108059, “Discovery of 2-Methyl-2-(4-(2-methyl-8-(1H-pyrrolo[2,3-b]pyridin-6-yl)-1H-naphtho[1,2-d]imidazol-1-yl)phenyl)propanenitrile as a Novel PI3K/mTOR Inhibitor with Enhanced Antitumor Efficacy In Vitro and In Vivo” (J Med Chem, 2022).
